These results are taken from PubChem BioAssay (NCI).

Some test systems named below: CCRF-CEM leukemia; KM12 colon; MALME-3M melanoma; OVCAR-4 ovarian; RPMI-8226 leukemia; SK-MEL-2 melanoma; SNB-75 CNS; SR leukemia; SW-620 colon; UACC-257 melanoma.
Experiment in all cases: DTP human tumour cell line panel, 48 h

Each structure is given as a SMILES string.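 All cell lines were grown in 96-well plates and treated with compound for 48 hours. TGI: total growth inhibition.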 A value given as a limit tells only on which side of the number the result lay.

Usually TGI stands for the concentration at which net growth stops. Read a low TGI as more potent growth arrest. Consider `CN(Cc1nc2c(N)nc(N)nc2nc1N)c1ccc(C(=O)NC(CCC(=O)O)C(=O)O)cc1` (stereo unspecified), for which the TGI with CCRF-CEM leukemia, with KM12 colon, in the experiment with MALME-3M melanoma, in the experiment with OVCAR-4 ovarian, with RPMI-8226 leukemia and in the experiment on SK-MEL-2 melanoma was greater than 100 µM each time. Further, the TGI in the experiment with SNB-75 CNS, in the experiment on SR leukemia, in the experiment on SW-620 colon and in the experiment with UACC-257 melanoma was greater than 100 µM each time.
For `COc1ccc(-c2c(C(C)=O)c(C)n(C3OC(CO)C(O)C(O)C3O)c(=S)c2C#N)cc1` (stereo unspecified), the concentration for total growth inhibition (TGI) with CCRF-CEM leukemia, in the experiment with KM12 colon, with MALME-3M melanoma, with OVCAR-4 ovarian, in the experiment on RPMI-8226 leukemia and in the experiment with SNB-75 CNS was greater than 100 µM throughout. The total growth inhibition concentration (TGI) in the experiment on SR leukemia, with SW-620 colon and in the experiment on UACC-257 melanoma was greater than 100 µM each time.
As for `CC(=O)OCC1OC(n2c3c(c(-c4ccco4)c(C#N)c2=S)CCCC3)C(OC(C)=O)C(OC(C)=O)C1OC(C)=O` (stereo unspecified), the TGI in the experiment with KM12 colon is greater than 31.6 µM; in the experiment on MALME-3M melanoma, greater than 31.6 µM; in the experiment with OVCAR-4 ovarian, greater than 31.6 µM; in the experiment on RPMI-8226 leukemia, greater than 100 µM; with SK-MEL-2 melanoma it was greater than 31.6 µM; in the experiment on SNB-75 CNS it was 24.6 µM. In addition, the TGI was greater than 31.6 µM with SR leukemia, greater than 100 µM in the experiment with SW-620 colon and greater than 31.6 µM in the experiment on UACC-257 melanoma.
For `C/C(=C/CC[C@](C)(OC1OC(CO)C(O)C(O)C1O)[C@H]1CC[C@]2(C)[C@@H]1CC[C@@H]1[C@@]3(C)CC[C@H](O)C(C)(C)[C@@H]3C[C@H](O)[C@]12C)CO` (stereo partly specified), the TGI in the experiment with CCRF-CEM leukemia was 95.9 µM; in the experiment with KM12 colon it was 47.8 µM; in the experiment with MALME-3M melanoma, 56.5 µM; with OVCAR-4 ovarian, greater than 100 µM; with RPMI-8226 leukemia, 28.3 µM; in the experiment on SNB-75 CNS it was 56 µM. The TGI with SR leukemia is greater than 100 µM; in the experiment on SW-620 colon it was 62.4 µM; in the experiment on UACC-257 melanoma it was 55.3 µM.
In the case of `CC(=O)Oc1ccc2c(c1)c1c(OC(C)=O)c3ccccc3c(OC(C)=O)c1n2Cc1cccc(C)c1`, the TGI in the experiment on CCRF-CEM leukemia was 62.6 µM; in the experiment with KM12 colon it was greater than 100 µM; with MALME-3M melanoma it was greater than 100 µM; in the experiment with OVCAR-4 ovarian, greater than 100 µM; in the experiment on RPMI-8226 leukemia, 74.4 µM; in the experiment on SK-MEL-2 melanoma it was 48.4 µM. For the same compound, the TGI with SNB-75 CNS turned out to be 41.6 µM; with SR leukemia it was 83.1 µM.
Take `CCCCCCCC(CC(=O)O)OC(=O)CC(CCCCCCC)OC1OC(C)C(O)C(O)C1OC1OC(C)C(O)C(O)C1O` (stereo unspecified): the TGI with CCRF-CEM leukemia, with KM12 colon, in the experiment with MALME-3M melanoma, in the experiment with RPMI-8226 leukemia, in the experiment on SK-MEL-2 melanoma and with SNB-75 CNS was greater than 100 µM in each case. In addition, the TGI in the experiment on SR leukemia, in the experiment with SW-620 colon and in the experiment with UACC-257 melanoma was greater than 100 µM in each case.
For `COC(=O)c1ccc(OCc2ccc3nc(-c4ccccc4)c(Cl)nc3c2)cc1`, the TGI was greater than 100 µM in the experiment with CCRF-CEM leukemia; greater than 100 µM with KM12 colon; greater than 100 µM in the experiment with OVCAR-4 ovarian; greater than 100 µM in the experiment on RPMI-8226 leukemia; greater than 100 µM in the experiment with SK-MEL-2 melanoma; 55.4 µM in the experiment with SNB-75 CNS. In addition, the TGI in the experiment on SR leukemia, in the experiment on SW-620 colon and with UACC-257 melanoma was greater than 100 µM throughout.
In the case of `COc1ccc(NC(=O)C2=C(SC)C(=O)N=C2N)cc1`, the TGI in the experiment with CCRF-CEM leukemia, with KM12 colon, in the experiment on OVCAR-4 ovarian, in the experiment on RPMI-8226 leukemia, with SK-MEL-2 melanoma and with SNB-75 CNS was greater than 100 µM throughout. For the same compound, the total growth inhibition concentration (TGI) with SR leukemia, in the experiment on SW-620 colon and in the experiment on UACC-257 melanoma was greater than 100 µM in each case.
On to `COC(=O)CCc1ccc2c(c1)CC1(C2)Cc2ccc(CCC(=O)OC)cc2C1`, for which the TGI was 97.1 µM in the experiment on CCRF-CEM leukemia; greater than 100 µM in the experiment on KM12 colon; greater than 100 µM in the experiment with MALME-3M melanoma; greater than 100 µM in the experiment on OVCAR-4 ovarian; 89.7 µM in the experiment with RPMI-8226 leukemia; greater than 100 µM with SK-MEL-2 melanoma. Besides, the TGI is greater than 100 µM in the experiment with SNB-75 CNS, 61.5 µM with SR leukemia and greater than 100 µM in the experiment on UACC-257 melanoma.
Consider `Cc1ccc(C2=Nn3c(nc4sc(-c5ccccc5)cc4c3=O)SC2)cc1`, for which the TGI with CCRF-CEM leukemia, with KM12 colon, with MALME-3M melanoma, in the experiment on OVCAR-4 ovarian, in the experiment with RPMI-8226 leukemia and in the experiment with SNB-75 CNS was greater than 100 µM each time. Also, the TGI with SR leukemia, in the experiment with SW-620 colon and with UACC-257 melanoma was greater than 100 µM in each case.
Consider `COC(=O)c1cc2c3c(c(C(C)=O)c(OC)c2[nH]1)NCC3`, for which the TGI with CCRF-CEM leukemia, in the experiment with KM12 colon, with MALME-3M melanoma, with RPMI-8226 leukemia, in the experiment on SK-MEL-2 melanoma and with SNB-75 CNS was greater than 50 µM throughout. In addition, the TGI in the experiment on SR leukemia, in the experiment on SW-620 colon and in the experiment on UACC-257 melanoma was greater than 50 µM each time.
Consider `COc1cccc(N2N=C3c4ccccc4-n4c(nc5ccccc54)C3C2N)c1` (stereo unspecified), for which the TGI in the experiment on KM12 colon, in the experiment with MALME-3M melanoma, with OVCAR-4 ovarian, in the experiment with RPMI-8226 leukemia, with SK-MEL-2 melanoma and with SNB-75 CNS was greater than 100 µM each time. Besides, the TGI in the experiment on SR leukemia, with SW-620 colon and with UACC-257 melanoma was greater than 100 µM in each case.
On to `BrCC[P+](c1ccccc1)(c1ccccc1)c1ccccc1`, for which the TGI in the experiment with CCRF-CEM leukemia is 12.2 µM; in the experiment on KM12 colon, 17.1 µM; with OVCAR-4 ovarian, 23.1 µM; in the experiment with RPMI-8226 leukemia, 8.08 µM; with SK-MEL-2 melanoma, 16.7 µM; in the experiment with SNB-75 CNS, 9.86 µM. In addition, the TGI with SR leukemia amounted to 27.5 µM; in the experiment with SW-620 colon it was 34.4 µM; in the experiment on UACC-257 melanoma, 16.5 µM.
Take `CC(=O)Nc1ncc2c(n1)-c1ccccc1OC2`: the concentration for total growth inhibition (TGI) with CCRF-CEM leukemia, in the experiment on KM12 colon, in the experiment with OVCAR-4 ovarian, in the experiment with RPMI-8226 leukemia, with SK-MEL-2 melanoma and in the experiment with SNB-75 CNS was greater than 100 µM in each case. Moreover, the TGI with SR leukemia, in the experiment on SW-620 colon and with UACC-257 melanoma was greater than 100 µM in each case.
